We go through 24 molecules from patent publication US20230031406A1, “COMPOUNDS AND COMPOSITIONS FOR TREATING CONDITIONS ASSOCIATED WITH NLRP ACTIVITY” (Novartis AG, priority 2018, published 2023).

The test system of the assay is PMA-differentiated THP-1 cells. In words: IL-1β production in PMA-differentiated THP-1 cells stimulated with gramicidin (hTHP-1 assay containing 2% fetal bovine serum; Procedures 1 and 2). The assay is classed as cell-based, human. Particulars: 2% fetal bovine serum. In short, it runs like this: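 PMA 20 ng/ml 16-18 h → trypsinise → 50,000 cells/well, RPMI/2% FBS; cpd 1 h (11-pt, 100–0.0017 μM; DMSO 0.37%); gramicidin 5 μM, 2 h; spin; supernatant IL-1β via HTRF.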

The mark [1] stands for this setting: Table B2, class symbols, read-out: hTHP-1 IC50.
[2] abbreviates: Homo sapiens, THP-1, Table B2, class symbols, read-out: hTHP-1 IC50.
Where [3] appears, read: Table B1, class symbols, read-out: Average IC50 of compounds in hTHP-1 assay: hTHP-1 IC50.
[4] abbreviates: Table B3, hTHP-1 assay, class symbols, read-out: IC50.
The mark [5] stands for this setting: Homo sapiens, THP-1, Table B3, hTHP-1 assay, class symbols, read-out: IC50.
Where [6] appears, read: Homo sapiens, THP-1, Table B1, class symbols, read-out: Average IC50 of compounds in hTHP-1 assay: hTHP-1 IC50.

Read-outs that look alike come from different tables or passages of the source.

Regarding `C[C@@H]1CCc2c1nc1c(c2NC(=O)N=S(N)(=O)c2ccn(C(C)(F)F)n2)CCC1` (single isomer, unassigned) [Compound 723a, (S) or (R)-1-(1,1-Difluoroethyl)-N′-(((R)-3-methyl-1,2,3,5,6,7-hexahydrodicyclopenta[b, e]pyridin-8-yl)carbamoyl)-1H-pyrazole-3-sulfonimidamide], under setting [1], the half-inhibitory concentration (IC50) (as a rule, the concentration that gives 50% inhibition) lay within 5 to 30 µM.
Consider `CCc1nc2c(c(NC(=O)N=S(N)(=O)c3cc(C(C)(C)O)cs3)c1C1CC1)CCC2` (stereo not drawn) [Compound 654, N′-((3-cyclopropyl-2-ethyl-6,7-dihydro-5H-cyclopenta[b]pyridin-4-yl)carbamoyl)-4-(2-hydroxypropan-2-yl)thiophene-2-sulfonimidamide], for which the IC50 under setting [2] was 0.2 to 1 µM.
For `Cc1nc2c(c(NC(=O)N=S(N)(=O)c3cc(C(C)(C)O)cs3)c1C(C)C)CCC2` (single isomer, unassigned) [Compound 622a, (S) or (R)-4-(2-Hydroxypropan-2-yl)-N′-((3-isopropyl-2-methyl-6,7-dihydro-5H-cyclopenta[b]pyridin-4-yl)carbamoyl) thiophene-2-sulfonimidamide], the IC50 under setting [1] was 5 to 30 µM.
Turning to `CC(C)(O)c1nc(CO)c(S(N)(=O)=NC(=O)Nc2c3c(nc4c2CCC4)CCC3)s1` (single isomer, unassigned) [Compound 150b, (R) or (S)-N′-((1,2,3,5,6,7-hexahydrodicyclo-penta[b,e]pyridin-8-yl)carbamoyl)-4-(hydroxymethyl)-2-(2-hydroxypropan-2-l)thiazole-5-sulfonimidamide], the IC50 under setting [3] lay in the range of 0.2 to 1 µM.
`CC(C)c1c(C2CC2)nc2c(c1NC(=O)N=S(N)(=O)c1cc(C(C)(C)O)cs1)CCC2` (single isomer, unassigned) [Compound 667b, (R) or (S)-N′-((2-cyclopropyl-3-isopropyl-6,7-dihydro-5H-cyclopenta[b]pyridin-4-yl)carbamoyl)-4-(2-hydroxypropan-2-yl)thiophene-2-sulfonimidamide]: the concentration for half-maximal inhibition (IC50) under setting [1] was 0.2 to 1 µM.
Same read-out and setting: the result for `Cc1c(C(F)(F)F)nc2c(c1NC(=O)N=S(N)(=O)c1cnc(C(C)(O)CO)s1)CCC2` (single isomer, unassigned) [Compound 605h, (S, R) or (R, R)-2-(1,2-Dihydroxypropan-2-yl)-N′-((3-methyl-2-(trifluoromethyl)-6,7-dihydro-5H-cyclopenta[b]pyridin-4-yl)carbamoyl) thiazole-5-sulfonimidamide] reads 0.2 to 1 µM.
Regarding `Cc1c(C(C)(C)C)nc2c(c1NC(=O)N=S(N)(=O)c1cc(C(C)(C)O)cs1)CCC2` (stereo not drawn) [Compound 657, N′-((2-(tert-butyl)-3-methyl-6,7-dihydro-5H-cyclopenta[b]pyridin-4-yl)carbamoyl)-4-(2-hydroxypropan-2-yl)thiophene-2-sulfonimidamide], under setting [2], the IC50 lay in the range of 5 to 30 µM.
On to `CCn1ccc(S(N)(=O)=NC(=O)Nc2c(C)c(C(F)(F)F)nc3c2CCC3)n1` (single isomer, unassigned) [Example 691, (R) or (S)-1-Ethyl-N′-((3-methyl-2-(trifluoromethyl)-6,7-dihydro-5H-cyclopenta[b]pyridin-4-yl)carbamoyl)-1H-pyrazole-3-sulfonimidamide], for which the IC50 under setting [4] lay within 0.2 to 1 µM.
On to `Cc1c(C(F)(F)F)nc2c(c1NC(=O)N=S(N)(=O)c1ccn(C)n1)CCC2` (single isomer, unassigned) [Example 694, (S) or (R)-1-Methyl-N′-((3-methyl-2-(trifluoromethyl)-6,7-dihydro-5H-cyclopenta[b]pyridin-4-yl)carbamoyl)-1H-pyrazole-3-sulfonimidamide], for which the 50% inhibitory concentration (IC50) (Homo sapiens, THP-1, Table B3, hTHP-1 assay, numeric values, read-out: IC50) was above 30 µM.
For `CC(C)(O)c1ncc([S@](N)(=O)=NC(=O)Nc2c3c(nc(CC(F)(F)F)c2C2CC2)CCC3)s1` [Example 578, (R)-N′-((3-cyclopropyl-2-(2,2,2-trifluoroethyl)-6,7-dihydro-5H-cyclopenta[b]pyridin-4-yl)carbamoyl)-2-(2-hydroxypropan-2-yl)thiazole-5-sulfonimidamide], the IC50 under setting [5] was in the range of 1 to 5 µM.
For the molecule `CC(C)c1c(C2CC2)nc2c(c1NC(=O)N=S(N)(=O)c1cc(C(C)(C)O)cs1)CCC2` (single isomer, unassigned) [Compound 667a, (S) or (R)-N′-((2-cyclopropyl-3-isopropyl-6,7-dihydro-5H-cyclopenta[b]pyridin-4-yl)carbamoyl)-4-(2-hydroxypropan-2-yl)thiophene-2-sulfonimidamide], under setting [1], the IC50 lay within 5 to 30 µM.
Turning to `Cc1c(CC2CC2)nc2c(c1NC(=O)N=S(N)(=O)c1cc(C(C)(C)O)cs1)CCC2` (single isomer, unassigned) [Compound 665b, (R) or (S)-N′-((2-(cyclopropylmethyl)-3-methyl-6,7-dihydro-5H-cyclopenta[b]pyridin-4-yl)carbamoyl)-4-(2-hydroxypropan-2-yl)thiophene-2-sulfonimidamide], the IC50 under setting [2] is 1 to 5 µM.
For the molecule `CC1CCc2c1nc1c(c2NC(=O)N=S(N)(=O)c2ccn(C(C)C)n2)CCC1` (stereo not drawn) [Compound 129, 1-isopropyl-N′-((3-methyl-1,2,3,5,6,7-hexahydrodicyclopenta[b,e]pyridin-8-yl)carbamoyl)-1H-pyrazole-3-sulfonimidamide], the IC50 under setting [6] was in the range of 0.2 to 1 µM.
As to `Cc1c(C(F)F)nc2c(c1NC(=O)N=S(N)(=O)c1cnc(C(C)(C)O)s1)CCC2` (single isomer, unassigned) [Compound 647a, (R) or (S)-N′-((2-(difluoromethyl)-3-methyl-6,7-dihydro-5H-cyclopenta[b]pyridin-4-yl)carbamoyl)-2-(2-hydroxypropan-2-yl)thiazole-5-sulfonimidamide], the IC50 under setting [2] lay within 1 to 5 µM.
Consider `Cc1c(C(F)(F)F)nc2c(c1NC(=O)N=S(N)(=O)c1cc(CO)n(C(C)C)n1)CCC2` (single isomer, unassigned) [Example 719, (S) or (R)-5-(hydroxymethyl)-1-isopropyl-N′-((3-methyl-2-(trifluoromethyl)-6,7-dihydro-5H-cyclopenta[b]pyridin-4-yl)carbamoyl)-1H-pyrazole-3-sulfonimidamide], for which the IC50 under setting [5] lay within 1 to 5 µM.
For the molecule `Cc1sc(S(N)(=O)=NC(=O)Nc2c3c(nc4c2CCC4C)CCC3)nc1C(C)(C)O` (stereo not drawn) [Compound 104, 4-(2-Hydroxypropan-2-yl)-5-methyl-N′-((3-methyl-1,2,3,5,6,7-hexahydrodicyclopenta[b,e]pyridin-8-yl)carbamoyl)thiazole-2-sulfonimidamide], the IC50 under setting [3] lay in the range of 0.2 to 1 µM.
Regarding `CC1CCc2c1nc1c(c2NC(=O)N=S(N)(=O)c2sc(C(C)(C)O)cc2F)CCC1` (stereo not drawn) [Compound 103, 3-fluoro-5-(2-hydroxypropan-2-yl)-N′-((3-methyl-1,2,3,5,6,7-hexahydrodicyclopenta[b,e]pyridin-8-yl)carbamoyl)thiophene-2-sulfonimidamide], under setting [3], the IC50 is 0.04 to 0.2 µM.
Regarding `Cn1nc(S(N)(=O)=NC(=O)Nc2c3c(nc4c2CCC4)CCC3)cc1C(C)(C)O` (stereo not drawn) [Compound 158, N-((1,2,3,5,6,7-hexahydrodicyclopenta[b,e]pyridin-8-yl)carbamoyl)-5-(2-hydroxypropan-2-yl)-1-methyl-1H-pyrazole-3-sulfonimidamide], the IC50 under setting [6] lay within 1 to 5 µM.
Turning to `NS(=O)(=NC(=O)Nc1c2c(nc3c1CCC31CC1)CCC2)c1ccn(CCO)n1` (single isomer, unassigned) [Example 647, (R) or (S)-1-(2-hydroxyethyl)-N′-((1′,5′,6′,7′-tetrahydro-2′H-spiro[cyclopropane-1,3′-dicyclopenta[b,e]pyridin]-8′-yl)carbamoyl)-1H-pyrazole-3-sulfonimidamide], under setting [4], the IC50 lay within 0.2 to 1 µM.
As to `COCc1nc(C(C)(C)O)sc1S(N)(=O)=NC(=O)Nc1c2c(nc3c1CCC3)CCC2` (stereo not drawn) [Compound 689, N′-((1,2,3,5,6,7-hexahydrodicyclopenta[b,e]pyridin-8-yl)carbamoyl)-2-(2-hydroxypropan-2-yl)-4-(methoxymethyl)thiazole-5-sulfonimidamide], the IC50 under setting [2] was in the range of 1 to 5 µM.
Regarding `CCn1cc(F)c(S(N)(=O)=NC(=O)Nc2c3c(nc(C(F)(F)F)c2-c2cccc(F)c2)CCC3)n1` (single isomer, unassigned) [Example 782, (S) or (R)-1-ethyl-4-fluoro-N′-((3-(3-fluorophenyl)-2-(trifluoromethyl)-6,7-dihydro-5H-cyclopenta[b]pyridin-4-yl)carbamoyl)-1H-pyrazole-3-sulfonimidamide], the IC50 (Table B4, class symbols, read-out: hTHP-1 IC50) is 0.2 to 1 µM.
Turning to `CCc1nc2c(c(NC(=O)N=S(N)(=O)c3cc(C(C)(C)O)cs3)c1C1CC1)CCC2` (single isomer, unassigned) [Compound 654a, (S) or (R)-N′-((3-cyclopropyl-2-ethyl-6,7-dihydro-5H-cyclopenta[b]pyridin-4-yl)carbamoyl)-4-(2-hydroxypropan-2-yl)thiophene-2-sulfonimidamide], the IC50 under setting [1] lay in the range of 1 to 5 µM.
Consider `COC(C)(C)c1nc(CO)c(S(N)(=O)=NC(=O)Nc2c3c(nc4c2CCC4(C)C)CCC3)s1` (stereo not drawn) [Compound 648, N′-((3,3-dimethyl-1,2,3,5,6,7-hexahydrodicyclopenta[b,e]pyridin-8-yl)carbamoyl)-4-(hydroxymethyl)-2-(2-methoxypropan-2-yl)thiazole-5-sulfonimidamide], for which the half-inhibitory concentration (IC50) under setting [2] was in the range of 1 to 5 µM.
Consider `C[C@@](O)(CO)c1cc(F)c([S@@](N)(=O)=NC(=O)Nc2c3c(nc4c2CCC42CC2)CCC3)s1` [Example 675, (S)-5-((R)-1,2-dihydroxypropan-2-yl)-3-fluoro-N′-((1′,5′,6′,7′-tetrahydro-2′H-spiro[cyclopropane-1,3′-dicyclopenta[b,e]pyridin]-8′-yl)carbamoyl)thiophene-2-sulfonimidamide], for which the IC50 under setting [5] was in the range of 5 to 30 µM.
